Patent publication US8425894B2, “Use of oligomers of lactic acid in the treatment of gynaecological disorders” (priority 2007, dated 2013)

Legend:
[1] = Comparison of in vitro release from lactic acid and OMLA 30 through a dialysis membrane; format: physicochemical
Method: 200 mg of LA or OMLA was placed in a dialysis bags. The bags were immersed in 50 ml of water (37° C.) and stirred in the same temperature for 48 hours. After 3, 6, 24 and 48 hours the acceptor liquid was removed and replaced with fresh water. The pH was measured at regular intervals. The liquid was titrated with 0.1 or 0.01 M KOH to measure how much LA equivalents are released. Then an excess of KOH was added and after 24 hours the solution was titrated with 0.1 or 0.01 HCl. […] The results are presented in FIG. 4A. pH was measured outside of the dialysis bags each hour between 1 to 10 and periodically up to 48 hours (FIG. 4B).

[2] = Mucoadhesive properties of OMLA formulations (5 graded VAS scale); format: physicochemical; details: 0 = no, 4 = very pronounced mucoadhesive properties, fluid form
Method: Mucoadhesiveness (or bioadhesiveness) is given according to a 5 graded VAS scale, where 0 denotes no mucoadhesive properties and 4 very pronounced mucoadhesive properties.
Chemical and preformulation experiments were carried out in order to determine mucoadhesiveness of OMLA in gel or semisolid forms (see table below). The mucoadhesiveness for the OMLA judged for fluid, gel, patch, and vagitoria. Muco(Bio)adhesiveness is given according to a 5 graded VAS scale, where 0 denotes no mucoadhesive properties and 4 very pronounced mucoadhesive properties.

SMILES: CC(O)C(=O)O (stereo not drawn) [LA, lactic acid]
- release from the dialysis bag ([1]; 200 mg in dialysis bag, 50 ml water, 37° C.): immediately
- ability to maintain constant acidic pH outside the dialysis bag ([1]; 50 ml water 37° C., replaced after 3, 6, 24, 48 h): not able to maintain acidic pH constant
- Mucoadhesiveness, Fluid [2]: 0
